In ChEMBL document CHEMBL4402594, “Interrogating the Lactate Dehydrogenase Tetramerization Site Using (Stapled) Peptides” (J Med Chem, 2020):
Structures can show the parent of a compound that is named as a salt. Each block holds one compound with its values, some of them ahead of it. Activity calls are given as the source filed them. No cut-off for these calls is given here. Peptide text beside a SMILES is read from it.

What was measured:
[1] = molecular target: T1, L-lactate dehydrogenase B chain (Homo sapiens, UniProt P07195); experiment: Binding affinity to truncated human N-terminal His6-tagged LDH-H expressed in Escherichia coli Rosetta (DE3) after 5 mins by Red-NHS fluorescence dye-based microscale thermophoresis analysis
[2] = molecular target: T1, L-lactate dehydrogenase B chain; experiment: Binding affinity to truncated human N-terminal His6-tagged LDH-H expressed in Escherichia coli Rosetta (DE3) in sodium phosphate buffer at pH 7.6 by WaterLOGSY NMR analysis
Target sequence in this assay (P07195 2-334 limits assumed): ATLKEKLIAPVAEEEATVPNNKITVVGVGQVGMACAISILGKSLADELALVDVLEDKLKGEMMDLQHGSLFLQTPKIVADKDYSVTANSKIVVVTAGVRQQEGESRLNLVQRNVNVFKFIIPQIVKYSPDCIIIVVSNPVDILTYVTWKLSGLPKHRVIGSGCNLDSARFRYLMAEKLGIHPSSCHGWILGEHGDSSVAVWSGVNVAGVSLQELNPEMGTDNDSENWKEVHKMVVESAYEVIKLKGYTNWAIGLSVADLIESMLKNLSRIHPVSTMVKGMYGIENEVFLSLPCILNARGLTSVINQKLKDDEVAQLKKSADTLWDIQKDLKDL

[3] = molecular target: T2, L-lactate dehydrogenase A chain (Homo sapiens, UniProt P00338); experiment: Binding affinity to human N-terminal His6-tagged LDH-5 expressed in Escherichia coli Rosetta (DE3) assessed as thermal denaturation up to 500 uM by nano differential scanning fluorimetry analysis
[4] = molecular target: L-lactate dehydrogenase A chain (Oryctolagus cuniculus) (UniProt P13491); experiment: Binding affinity to rabbit LDH-M assessed as acid-induced dimerization by measuring fluorescence recovery at pH 5 by nano differential scanning fluorimetry analysis
[5] = Conformational stability in sodium phosphate buffer assessed as increase in alpha-helicity with strong theta 206 band formation at 100 uM by circular dichroism method; assay type: physicochemical
[6] = molecular target: L-lactate dehydrogenase A chain (Oryctolagus cuniculus) (UniProt P13491); experiment: Binding affinity to rabbit LDH-5 assessed as acid-induced dimerization by measuring fluorescence recovery at pH 7.6 by nano differential scanning fluorimetry analysis
[7] = molecular target: T1, L-lactate dehydrogenase B chain; experiment: Competitive binding affinity to recombinant full length human His-tagged LDH-1 (1 to 322 residues) expressed in Escherichia coli assessed as protein-compound interaction at N-terminal domain after 5 mins by Red-NHS fluorescence dye based microscale thermophoresis analysis
Target sequence in this assay (P07195 2-334 limits assumed): as above

[8] = molecular target: T1, L-lactate dehydrogenase B chain; experiment: Binding affinity to recombinant full length human His-tagged LDH-1 (1 to 322 residues) expressed in Escherichia coli assessed as thermal denaturation up to 500 uM by nano differential scanning fluorimetry analysis
Target sequence in this assay (P07195 2-334 limits assumed): as above

[9] = molecular target: T2, L-lactate dehydrogenase A chain; experiment: Competitive binding affinity to human N-terminal His6-tagged LDH-5 expressed in Escherichia coli Rosetta (DE3) assessed as protein-compound interaction at N-terminal domain after 5 mins by Red-NHS fluorescence dye-based microscale thermophoresis analysis
[10] = system: L-lactate dehydrogenase B chain (Homo sapiens), P07195 [K7A]; experiment: Binding affinity to full length human N-terminal His6-tagged LDH-H K6A mutant expressed in Escherichia coli Rosetta (DE3) assessed as melting temperature heated up to 95 degree C for 3 mins by nano differential scanning fluorimetry analysis
[11] = molecular target: T1, L-lactate dehydrogenase B chain; experiment: Binding affinity to full length human N-terminal His6-tagged LDH-H expressed in Escherichia coli Rosetta (DE3) assessed as melting temperature heated up to 95 degree C for 3 mins by nano differential scanning fluorimetry analysis
Target sequence in this assay (P07195 2-334 limits assumed): as above

[12] = molecular target: L-lactate dehydrogenase B chain (Homo sapiens, UniProt P07195, T3A); experiment: Binding affinity full length human N-terminal His6-tagged LDH-H T2A mutant expressed in Escherichia coli Rosetta (DE3) assessed as tetrameric disruption by nano differential scanning fluorimetry analysis
[13] = system: L-lactate dehydrogenase B chain (Homo sapiens), P07195 [L4A]; experiment: Binding affinity to full length human N-terminal His6-tagged LDH-H L3A mutant expressed in Escherichia coli Rosetta (DE3) assessed as change in melting temperature heated up to 95 degree C for 3 mins by nano differential scanning fluorimetry analysis
[14] = molecular target: T1, L-lactate dehydrogenase B chain; experiment: Binding affinity to truncated human N-terminal His6-tagged LDH-H expressed in Escherichia coli Rosetta (DE3) assessed as melting temperature heated up to 95 degree C for 3 mins by nano differential scanning fluorimetry analysis
Target sequence in this assay (P07195 2-334 limits assumed): as above

[15] = molecular target: L-lactate dehydrogenase B chain (Homo sapiens, UniProt P07195, I9A); experiment: Binding affinity full length human N-terminal His6-tagged LDH-H I8A mutant expressed in Escherichia coli Rosetta (DE3) assessed as tetrameric disruption by nano differential scanning fluorimetry analysis
[16] = system: L-lactate dehydrogenase B chain (Homo sapiens), P07195 [E6A]; experiment: Binding affinity to full length human N-terminal His6-tagged LDH-H E5A mutant expressed in Escherichia coli Rosetta (DE3) assessed as melting temperature heated up to 95 degree C for 3 mins by nano differential scanning fluorimetry analysis
[17] = system: L-lactate dehydrogenase B chain (Homo sapiens), P07195 [T3A]; experiment: Binding affinity to full length human N-terminal His6-tagged LDH-H T2A mutant expressed in Escherichia coli Rosetta (DE3) assessed as melting temperature heated up to 95 degree C for 3 mins by nano differential scanning fluorimetry analysis
[18] = system: L-lactate dehydrogenase B chain (Homo sapiens), P07195 [K5A]; experiment: Binding affinity to full length human N-terminal His6-tagged LDH-H K4A mutant expressed in Escherichia coli Rosetta (DE3) assessed as melting temperature heated up to 95 degree C for 3 mins by nano differential scanning fluorimetry analysis
[19] = system: L-lactate dehydrogenase B chain (Homo sapiens), P07195 [L8A]; experiment: Binding affinity to full length human N-terminal His6-tagged LDH-H L7A mutant expressed in Escherichia coli Rosetta (DE3) assessed as melting temperature heated up to 95 degree C for 3 mins by nano differential scanning fluorimetry analysis
[20] = system: L-lactate dehydrogenase B chain (Homo sapiens), P07195 [I9A]; experiment: Binding affinity to full length human N-terminal His6-tagged LDH-H I8A mutant expressed in Escherichia coli Rosetta (DE3) assessed as changed in melting temperature heated up to 95 degree C for 3 mins by nano differential scanning fluorimetry analysis
[21] = molecular target: L-lactate dehydrogenase B chain (Homo sapiens, UniProt P07195, K7A); experiment: Binding affinity full length human N-terminal His6-tagged LDH-H K6A mutant expressed in Escherichia coli Rosetta (DE3) assessed as tetrameric disruption by nano differential scanning fluorimetry analysis
[22] = molecular target: L-lactate dehydrogenase B chain (Homo sapiens, UniProt P07195, K5A); experiment: Binding affinity full length human N-terminal His6-tagged LDH-H K4A mutant expressed in Escherichia coli Rosetta (DE3) assessed as tetrameric disruption by nano differential scanning fluorimetry analysis
[23] = system: L-lactate dehydrogenase B chain (Homo sapiens), P07195 [L4A]; experiment: Binding affinity to full length human N-terminal His6-tagged LDH-H L3A mutant expressed in Escherichia coli Rosetta (DE3) assessed as melting temperature heated up to 95 degree C for 3 mins by nano differential scanning fluorimetry analysis
[24] = system: L-lactate dehydrogenase B chain (Homo sapiens), P07195 [I9A]; experiment: Binding affinity to full length human N-terminal His6-tagged LDH-H I8A mutant expressed in Escherichia coli Rosetta (DE3) assessed as melting temperature heated up to 95 degree C for 3 mins by nano differential scanning fluorimetry analysis
[25] = molecular target: L-lactate dehydrogenase B chain (Homo sapiens, UniProt P07195, L4A); experiment: Binding affinity full length human N-terminal His6-tagged LDH-H L3A mutant expressed in Escherichia coli Rosetta (DE3) assessed as tetrameric disruption by nano differential scanning fluorimetry analysis
[26] = molecular target: T1, L-lactate dehydrogenase B chain; experiment: Binding affinity to full length human N-terminal His6-tagged LDH-H expressed in Escherichia coli Rosetta (DE3) assessed as effect on tetramerization site at 100 to 200 uM in sodium phosphate buffer at pH 7.6 by WaterLOGSY NMR analysis
Target sequence in this assay (P07195 2-334 limits assumed): as above

[27] = Conformational stability in sodium phosphate buffer assessed as helical structural propensity at 200 uM and pH 7.6 at 25 degree C by circular dichroism method; assay type: physicochemical; conditions: pH 7.6, 200 µM
[28] = molecular target: T1, L-lactate dehydrogenase B chain; experiment: Binding affinity to full length human N-terminal His6-tagged LDH-H expressed in Escherichia coli Rosetta (DE3) in sodium phosphate buffer at pH 7.6 by WaterLOGSY NMR analysis
Target sequence in this assay (P07195 whole entry, the tested form may be a part): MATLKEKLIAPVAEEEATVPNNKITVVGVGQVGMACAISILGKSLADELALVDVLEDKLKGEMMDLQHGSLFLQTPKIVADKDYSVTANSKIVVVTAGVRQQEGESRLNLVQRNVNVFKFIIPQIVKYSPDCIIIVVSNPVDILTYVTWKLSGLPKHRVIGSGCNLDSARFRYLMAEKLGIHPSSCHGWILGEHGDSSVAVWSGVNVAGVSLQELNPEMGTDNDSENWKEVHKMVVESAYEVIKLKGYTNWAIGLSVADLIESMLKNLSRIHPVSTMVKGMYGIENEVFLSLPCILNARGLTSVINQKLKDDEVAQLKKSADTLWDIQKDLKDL

[29] = Conformational stability in water assessed as helical structural propensity by circular dichroism method; assay type: physicochemical; conditions: buffer
[30] = Conformational stability in sodium phosphate buffer assessed as increase in alpha-helicity with theta 222 band formation at 100 uM by circular dichroism method; assay type: physicochemical
[31] = Conformational stability in water assessed as helical structural propensity by 2D NMR-ROESY analysis; assay type: physicochemical; conditions: buffer
[32] = molecular target: T1, L-lactate dehydrogenase B chain; experiment: Binding affinity to full length human N-terminal His6-tagged LDH-H expressed in Escherichia coli Rosetta (DE3) assessed as saturation transfer at lipophilic residues at 800 uM in sodium phosphate buffer at pH 7.6 by WaterLOGSY NMR analysis
[33] = molecular target: T1, L-lactate dehydrogenase B chain; experiment: Binding affinity to recombinant full length human His-tagged LDH-1 (1 to 322 residues) expressed in Escherichia coli by WaterLOGSY NMR analysis
Target sequence in this assay (P07195 whole entry, the tested form may be a part): as above

[34] = molecular target: L-lactate dehydrogenase A chain (Oryctolagus cuniculus) (UniProt P13491); experiment: Binding affinity to rabbit LDH-5 assessed as acid-induced dimerization by measuring fluorescence recovery at 50 uM pH 7.6 by nano differential scanning fluorimetry analysis

Sequence of L-lactate dehydrogenase B chain (Homo sapiens), P07195 [L4A] (P07195 whole entry L4A, the tested form may be a part): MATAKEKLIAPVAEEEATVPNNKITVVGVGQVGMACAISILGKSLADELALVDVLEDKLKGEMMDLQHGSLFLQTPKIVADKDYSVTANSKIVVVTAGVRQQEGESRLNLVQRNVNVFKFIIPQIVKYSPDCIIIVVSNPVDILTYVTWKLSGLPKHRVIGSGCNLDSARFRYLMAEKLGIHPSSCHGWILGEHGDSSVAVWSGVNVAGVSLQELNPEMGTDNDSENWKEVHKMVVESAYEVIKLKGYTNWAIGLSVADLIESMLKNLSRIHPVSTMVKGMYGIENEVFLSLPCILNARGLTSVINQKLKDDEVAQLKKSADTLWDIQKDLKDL
Sequence of L-lactate dehydrogenase B chain (Homo sapiens), P07195 [I9A] (P07195 whole entry I9A): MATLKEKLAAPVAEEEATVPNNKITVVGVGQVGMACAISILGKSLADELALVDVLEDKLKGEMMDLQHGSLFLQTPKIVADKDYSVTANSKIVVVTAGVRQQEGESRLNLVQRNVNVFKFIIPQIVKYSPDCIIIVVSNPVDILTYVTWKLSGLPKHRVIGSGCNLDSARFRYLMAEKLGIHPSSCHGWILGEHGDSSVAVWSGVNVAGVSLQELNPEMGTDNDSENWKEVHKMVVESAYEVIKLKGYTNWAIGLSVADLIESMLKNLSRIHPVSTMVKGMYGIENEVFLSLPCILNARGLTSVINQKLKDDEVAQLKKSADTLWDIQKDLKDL
Sequence of L-lactate dehydrogenase B chain (Homo sapiens), P07195 [L8A] (P07195 whole entry L8A): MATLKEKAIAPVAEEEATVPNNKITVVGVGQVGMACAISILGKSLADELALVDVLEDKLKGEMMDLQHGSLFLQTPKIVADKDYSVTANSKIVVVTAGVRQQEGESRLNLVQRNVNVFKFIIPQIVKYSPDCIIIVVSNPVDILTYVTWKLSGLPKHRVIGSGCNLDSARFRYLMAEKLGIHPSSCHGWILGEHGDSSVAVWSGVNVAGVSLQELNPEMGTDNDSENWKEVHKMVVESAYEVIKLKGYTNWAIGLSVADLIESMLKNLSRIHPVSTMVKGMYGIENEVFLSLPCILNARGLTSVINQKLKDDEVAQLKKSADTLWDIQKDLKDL
Sequence of L-lactate dehydrogenase B chain (Homo sapiens), P07195 [T3A] (P07195 whole entry T3A): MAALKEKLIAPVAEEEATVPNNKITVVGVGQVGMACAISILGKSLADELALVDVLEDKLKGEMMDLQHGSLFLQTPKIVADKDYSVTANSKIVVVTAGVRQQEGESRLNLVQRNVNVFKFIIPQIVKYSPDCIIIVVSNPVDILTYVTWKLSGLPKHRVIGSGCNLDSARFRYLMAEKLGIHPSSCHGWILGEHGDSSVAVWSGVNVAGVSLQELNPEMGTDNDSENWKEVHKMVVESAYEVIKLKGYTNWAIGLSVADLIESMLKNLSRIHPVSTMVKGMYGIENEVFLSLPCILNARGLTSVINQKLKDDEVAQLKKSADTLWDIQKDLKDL
Sequence of L-lactate dehydrogenase B chain (Homo sapiens, UniProt P07195, K5A) (P07195 2-334 K5A limits assumed): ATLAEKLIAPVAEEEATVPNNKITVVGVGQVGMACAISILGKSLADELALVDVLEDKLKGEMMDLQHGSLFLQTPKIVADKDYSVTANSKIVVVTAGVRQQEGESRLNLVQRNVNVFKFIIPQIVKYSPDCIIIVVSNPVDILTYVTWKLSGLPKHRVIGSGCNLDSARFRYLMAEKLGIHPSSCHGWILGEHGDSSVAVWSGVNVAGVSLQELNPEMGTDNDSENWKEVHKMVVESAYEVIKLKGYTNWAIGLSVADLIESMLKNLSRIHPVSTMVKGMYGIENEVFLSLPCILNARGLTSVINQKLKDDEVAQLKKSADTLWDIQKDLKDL
Sequence of L-lactate dehydrogenase B chain (Homo sapiens, UniProt P07195, T3A) (P07195 2-334 T3A limits assumed): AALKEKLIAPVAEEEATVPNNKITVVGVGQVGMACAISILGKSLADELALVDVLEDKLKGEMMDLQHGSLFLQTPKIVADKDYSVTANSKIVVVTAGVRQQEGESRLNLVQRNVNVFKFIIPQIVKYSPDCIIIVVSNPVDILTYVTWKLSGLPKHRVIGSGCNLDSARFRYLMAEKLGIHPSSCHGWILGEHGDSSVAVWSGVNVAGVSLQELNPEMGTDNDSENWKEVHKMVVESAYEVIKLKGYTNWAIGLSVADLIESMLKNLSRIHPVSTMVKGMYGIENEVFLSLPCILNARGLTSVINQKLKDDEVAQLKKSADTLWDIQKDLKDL
Sequence of L-lactate dehydrogenase B chain (Homo sapiens), P07195 [E6A] (P07195 whole entry E6A): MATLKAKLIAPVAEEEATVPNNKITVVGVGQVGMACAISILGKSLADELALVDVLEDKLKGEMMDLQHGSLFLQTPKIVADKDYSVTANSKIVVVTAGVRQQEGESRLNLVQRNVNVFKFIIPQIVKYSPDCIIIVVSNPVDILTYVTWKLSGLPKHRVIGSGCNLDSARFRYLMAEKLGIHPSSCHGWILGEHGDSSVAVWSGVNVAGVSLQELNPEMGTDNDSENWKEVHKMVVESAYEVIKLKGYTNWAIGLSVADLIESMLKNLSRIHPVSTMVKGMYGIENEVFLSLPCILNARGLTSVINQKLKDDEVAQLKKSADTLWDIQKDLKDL
Sequence of L-lactate dehydrogenase B chain (Homo sapiens), P07195 [K7A] (P07195 whole entry K7A): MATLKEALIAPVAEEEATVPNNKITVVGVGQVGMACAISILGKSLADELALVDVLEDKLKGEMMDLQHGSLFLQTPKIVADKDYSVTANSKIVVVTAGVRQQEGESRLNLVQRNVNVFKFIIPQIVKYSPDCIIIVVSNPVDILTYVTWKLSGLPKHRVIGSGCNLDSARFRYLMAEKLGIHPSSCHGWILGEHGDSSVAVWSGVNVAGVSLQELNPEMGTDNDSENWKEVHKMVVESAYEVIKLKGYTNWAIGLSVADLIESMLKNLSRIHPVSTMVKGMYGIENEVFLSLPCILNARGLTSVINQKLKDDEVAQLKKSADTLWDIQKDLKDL
Sequence of L-lactate dehydrogenase B chain (Homo sapiens), P07195 [K5A] (P07195 whole entry K5A): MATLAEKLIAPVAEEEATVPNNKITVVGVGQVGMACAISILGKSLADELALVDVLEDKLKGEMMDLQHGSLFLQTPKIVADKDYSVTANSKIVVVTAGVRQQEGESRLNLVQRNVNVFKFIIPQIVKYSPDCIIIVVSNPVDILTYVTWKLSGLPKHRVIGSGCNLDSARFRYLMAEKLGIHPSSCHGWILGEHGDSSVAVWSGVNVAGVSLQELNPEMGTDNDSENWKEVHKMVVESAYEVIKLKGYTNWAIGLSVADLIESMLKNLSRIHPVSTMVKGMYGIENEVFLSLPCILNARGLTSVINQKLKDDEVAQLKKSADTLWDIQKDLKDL
Sequence of L-lactate dehydrogenase B chain (Homo sapiens, UniProt P07195, I9A) (P07195 2-334 I9A limits assumed): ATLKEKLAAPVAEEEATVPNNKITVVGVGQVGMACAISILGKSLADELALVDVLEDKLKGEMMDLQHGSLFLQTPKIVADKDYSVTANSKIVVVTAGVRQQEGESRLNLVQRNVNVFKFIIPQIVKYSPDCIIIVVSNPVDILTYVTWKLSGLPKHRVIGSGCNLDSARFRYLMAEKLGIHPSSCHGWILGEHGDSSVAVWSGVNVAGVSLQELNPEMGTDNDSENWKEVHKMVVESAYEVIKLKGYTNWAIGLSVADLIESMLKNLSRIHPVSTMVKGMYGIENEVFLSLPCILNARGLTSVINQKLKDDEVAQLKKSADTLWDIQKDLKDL
Sequence of L-lactate dehydrogenase B chain (Homo sapiens, UniProt P07195, K7A) (P07195 2-334 K7A limits assumed): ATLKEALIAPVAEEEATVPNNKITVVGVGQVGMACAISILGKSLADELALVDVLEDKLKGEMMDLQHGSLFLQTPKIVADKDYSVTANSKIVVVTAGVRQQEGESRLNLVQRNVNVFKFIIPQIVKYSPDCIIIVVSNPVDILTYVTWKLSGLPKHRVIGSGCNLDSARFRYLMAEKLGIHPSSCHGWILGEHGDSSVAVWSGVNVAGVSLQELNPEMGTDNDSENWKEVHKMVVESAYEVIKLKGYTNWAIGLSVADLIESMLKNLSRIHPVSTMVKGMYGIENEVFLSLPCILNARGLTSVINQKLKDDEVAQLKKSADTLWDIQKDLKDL

Compound: CC[C@H](C)[C@@H]1NC(=O)[C@H](CC(C)C)NC(=O)[C@@H](NC(=O)[C@H](CCC(=O)O)NC(=O)[C@H](CCCCN)NC(=O)[C@H](CC(C)C)NC(=O)[C@@H](NC(=O)[C@H](C)N)[C@@H](C)O)CCCCNC1=O (HELM PEPTIDE1{A.T.L.K.E.K.L.I}$PEPTIDE1,PEPTIDE1,6:R3-8:R2$$$V2.0)
- Kd [1]: > 1 mM

Compound: CC[C@H](C)[C@H](NC(=O)[C@H](CC(C)C)NC(=O)[C@H](CCCCN)NC(=O)[C@H](CCC(=O)O)NC(=O)C(C)(C)NC(=O)[C@H](CC(C)C)NC(=O)[C@@H](NC(=O)[C@H](C)N)[C@@H](C)O)C(N)=O (HELM PEPTIDE1{A.T.L.[Aib].E.K.L.I.[am]}$$$$V2.0)
- Activity [1]: inactive
- Activity [2]: Active

Compound: CC[C@H](C)C(NC(=O)[C@H](CC(C)C)NC(=O)[C@H](CCCCN)NC(=O)[C@H](CCC(=O)O)NC(=O)[C@@H]1CSCc2cccc(c2)CSC[C@H](N)C(=O)N[C@@H](C)C(=O)N[C@@H]([C@@H](C)O)C(=O)N[C@@H](CC(C)C)C(=O)N1)C(N)=O (stereo partly drawn) (HELM PEPTIDE1{C.A.T.L.C.E.K.L.[CC[C@H](C)C(N[*:1])C(=O)[*:2]].[am]}|CHEM1{[c1cc(C[*:1])cc(C[*:2])c1]}$PEPTIDE1,CHEM1,1:R3-1:R1|PEPTIDE1,CHEM1,5:R3-1:R2$$$V2.0)
- Kd [1]: > 1 mM

Compound: N=C(N)N [GUANIDINE HYDROCHLORIDE]
- Tm [10]: 67.9 °C
- Tm [11]: 74.5 °C
- EC50 [12]: 978 mM
- ΔTm [13]: 13.3 °C
- Tm [14]: 57.5 °C
- EC50 [15]: 233 mM
- Tm [16]: 73.3 °C
- Tm [17]: 72.4 °C
- Tm [18]: 65.8 °C
- Tm [19]: 55.6 °C
- ΔTm [20]: 24.6 °C
- EC50 [21]: 954 mM
- EC50 [22]: 991 mM
- Tm [23]: 61.2 °C
- Tm [24]: 49.9 °C
- EC50 [25]: 624 mM

Compound: H-ATGKEKLI-NH2
- Activity [26]: inactive

Compound: H-ATLAEKLI-NH2
- Activity [26]: inactive

Compound: H-ATLKEKLI-NH2
- Stability [29]: Unstable
- Kd [28]: 1.02 mM
- Stability [30]: Stable
- Stability [31]: Unstable
- Activity [32]: Active
- Activity [33]: Not Active
- Activity [34]: Active

Compound: H-ATLKEKLIAPVAE-NH2
- Kd [28]: 1.05 mM

Compound: H-GTLKEKLI-NH2
- Activity [26]: inactive

Continued, values first:

- Kd [1]: > 1 mM
Compound: CC[C@H](C)[C@@H]1NC(=O)[C@H](CC(C)C)NC(=O)[C@@H](NC(=O)[C@H](CCC(=O)O)NC(=O)[C@H](CCCCN)NC(=O)[C@H](CC(C)C)NC(=O)[C@@H](NC(=O)[C@H](C)N)[C@@H](C)O)CSCc2cccc(c2)CSC[C@@H](C(N)=O)NC(=O)[C@H](C)NC1=O (HELM PEPTIDE1{A.T.L.K.E.C.L.I.A.C.[am]}|CHEM1{[c1cc(C[*:1])cc(C[*:2])c1]}$PEPTIDE1,CHEM1,6:R3-1:R1|PEPTIDE1,CHEM1,10:R3-1:R2$$$V2.0)

- Activity [1]: inactive
- Activity [2]: Active
Compound: CC[C@H](C)[C@H](NC(=O)[C@H](CC(C)C)NC(=O)C(C)(C)NC(=O)[C@H](CCC(=O)O)NC(=O)[C@H](CCCCN)NC(=O)[C@H](CC(C)C)NC(=O)[C@@H](NC(=O)[C@H](C)N)[C@@H](C)O)C(N)=O (HELM PEPTIDE1{A.T.L.K.E.[Aib].L.I.[am]}$$$$V2.0)

- Activity [3]: inactive
- Activity [4]: inactive
- Stability [5]: Stable
- Activity [6]: Active
- Activity [7]: inactive
- Activity [8]: inactive
- Activity [9]: inactive
Compound: CC[C@H](C)[C@H](NC(=O)[C@H](CC(C)C)NC(=O)[C@H](CCCCN)NC(=O)[C@@H]1CSCc2cccc(c2)CSC[C@H](N)C(=O)N[C@@H]([C@@H](C)O)C(=O)N[C@@H](CC(C)C)C(=O)N[C@@H](CCCCN)C(=O)N1)C(N)=O (HELM PEPTIDE1{C.T.L.K.C.K.L.I.[am]}|CHEM1{[c1cc(C[*:1])cc(C[*:2])c1]}$PEPTIDE1,CHEM1,1:R3-1:R1|PEPTIDE1,CHEM1,5:R3-1:R2$$$V2.0)

- Activity [26]: inactive
- Stability [27]: Unstable
Compound: Ac-TLKEKLI-NH2

- Activity [26]: inactive
Compound: H-AALKEKLI-NH2

- Activity [26]: inactive
Compound: H-ATAKEKLI-NH2

- Activity [26]: inactive
Compound: H-ATLKAKLI-NH2

- Kd [28]: 1.49 mM
Compound: H-ATLKDQLI-OH

- Activity [26]: inactive
Compound: H-ATLKEALI-NH2

- Activity [26]: inactive
Compound: H-ATLKEKAI-NH2

- Activity [26]: inactive
- Stability [27]: Unstable
Compound: H-ATLKEKL-NH2

- Activity [26]: inactive
Compound: H-ATLKEKLA-NH2

- Activity [26]: inactive
Compound: H-ATLKEKLG-NH2
